The text below walks through data of article PMC10232439, “Identification of photocrosslinking peptide ligands by mRNA display” (Communications Chemistry, 2023).

Where a SMILES comes first, the peptide text is derived from it. Bridges are numbered along the chain shown (N, C = ends). Where no end group is shown, it is not given here. [ ]: non-standard residue; d: D form. The star is where a group is joined. 5FAM = O=C1OC2(c3ccc(O)cc3Oc3cc(O)ccc32)c2ccc(C(=O)*)cc21; Bpa = N[C@@H](Cc1ccc(C(=O)c2ccccc2)cc1)C(=O)O

Experiment [1] has as its target T1, BRD3-BD2 (Homo sapiens, UniProt Q15059).
T1 construct: BRD3-BD2 (306–421, Q15059); Avi tag (biotinylated in vivo; vector pQE80L-Navi); made in house; host or cells: Escherichia coli BL21(DE3)
In words: Direct fluorescence anisotropy binding assay. To be noted: direct fluorescence anisotropy with FAM-labelled peptide (100 nM final), 12-point 2-fold dilution of BRD3-BD2, 30 min rt, read at 25 °C; mean of at least three replicates ± SD. The procedure: Binding affinities for the two fluorescently tagged peptides were then determined using a direct fluorescence anisotropy assay (Fig. 2d and Supplementary Fig. S6). […] Having established that our peptides were able to bind to BRD3-BD2, we next assessed the crosslinking efficiency of the unlabelled variants. We were pleased to find that both peptides efficiently cross-linked to BRD3-BD2 upon exposure to UV light. After incubation with two equivalents of peptide and irradiation at 365 nm for only 5 min, we observed around 40% protein modification as analysed by sample separation on an SDS-PAGE gel and Coomassie staining. […]
(§1) S7. Direct fluorescence anisotropy assay […]
(§2) After 30 min, fluorescence anisotropy was measured with a CLARIOstar plate reader (BMG Labtech) using excitation at 482 nm and emissions at 530 nm at 25 °C. […] KD values were calculated using GraphPad Prism and a curve fitted using a one site - total fitting model. […]
(§3) Irradiated samples were analysed by SDS-PAGE on 4–20% Bis-Tris gels (mPAGE, Millipore).
(§4) Experiments with Bpa-P1 and Bpa-P2 were visualised by Quick Coomassie staining (Neo Biotech) with gels imaged on a Chemidoc MP Imaging System (Biorad) and quantified by Fiji. Experiments with Bpa-P1-FAM and Bpa-P2-FAM were visualised by in gel fluorescence imaging using a Typhoon FLA 9500 […]
Irradiated samples with BRD3-BD2 were further analysed by LCMS. […]

In experiment [2] the target is T1, BRD3-BD2. Nature of the experiment: Photocrosslinking of BRD3-BD2, SDS-PAGE/Coomassie densitometry. In kind it is biochemical. The note with it: BRD3-BD2 20 µM, peptide 40 µM (two equivalents), 365 nm for 40 min, 0 °C; SDS-PAGE, Coomassie; mean of triplicate. The procedure: Fig. 3 Photocrosslinking of BRDs with pBpa-containing ligands. a Crosslinking between BRD3-BD2 (20 µM) and cyclic peptides (40 µM) after exposure to UV irradiation (365 nm) for variable amounts of time (0, 5, 10, 20, 40 min). Samples were separated on an SDS-PAGE gel and visualised by Coomassie staining. b Plot of percentage of cross-linked BRD3-BD2 calculated by densitometric analysis of protein bands from (a). Crosslinking efficiencies are represented as the mean of triplicate experiments ±1 standard deviation. c Crosslinking of BRD3-BD2/BRD2-BD2/BRD4-BD2/BRD3-BD1 (2 µM) by cyclic peptides (20 µM) after exposure to UV irradiation for 30 min. Samples were analysed and processed as described in (a, b). […]
as §1, §2, §3, §4

Another experiment addresses BRD3-BD1. To be noted: tight binding peptide to its target protein BRD3-BD1; cited from earlier work.
In experiment [3] the target is T2, second bromodomain of BRD3 (BRD3-BD2), biotinylated (human (from the printed accession), UniProt Q15059 306-421, biotin (biotinylated; cultures induced with IPTG and 100 µM biotin)).
T2 construct: BRD3, second bromodomain, residues 306-421 of Q15059; also called wild-type BRD3-BD2; source: E. coli BL21(DE3), purified (HisTrap, Superdex 75)
T2 sequence (Q15059 306-421): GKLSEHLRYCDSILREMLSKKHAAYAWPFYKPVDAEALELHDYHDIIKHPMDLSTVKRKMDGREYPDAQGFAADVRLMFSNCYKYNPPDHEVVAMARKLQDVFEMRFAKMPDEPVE
In words: SPR; peptide 3.2B on BRD3-BD2 cross-linked to Bpa-P1 or Bpa-P2; mean ± standard deviation of the mean. The note with it: both partners purified.

T1 sequence (Q15059 306-421): as above

As to `CC(C)C[C@@H]1NC(=O)[C@H](Cc2ccc(O)cc2)NC(=O)[C@H](Cc2ccc(C(=O)c3ccccc3)cc2)NC(=O)[C@H](CC(=O)O)NC(=O)[C@H](CC(=O)O)NC(=O)[C@H](CC(N)=O)NC(=O)[C@H](C(C)C)NC(=O)[C@H](CO)NC(=O)[C@H](CC(N)=O)NC(=O)[C@H](CC(C)C)NC(=O)[C@@H](Cc2ccc(O)cc2)NC(=O)CSC[C@@H](C(=O)NCC(=O)N[C@@H](CCCCNC(=O)c2ccc3c(c2)C(=O)OC32c3ccc(O)cc3Oc3cc(O)ccc32)C(N)=O)NC(=O)[C@H](Cc2ccc(O)cc2)NC(=O)[C@H](C)NC1=O` [Bpa-P1-FAM] ({CH2CO}-[dY]LNSVNDD[Bpa]YLAYCGK(5FAM)-NH2; thioether N-14), the Kd at BRD3-BD2 [1] is 29 ± 10 µM.
On to `CC(C)C[C@@H]1NC(=O)[C@H](Cc2ccc(O)cc2)NC(=O)[C@H](Cc2ccc(C(=O)c3ccccc3)cc2)NC(=O)[C@H](CC(=O)O)NC(=O)[C@H](CC(=O)O)NC(=O)[C@H](CC(N)=O)NC(=O)[C@H](C(C)C)NC(=O)[C@H](CO)NC(=O)[C@H](CC(N)=O)NC(=O)[C@H](CC(C)C)NC(=O)[C@@H](Cc2ccc(O)cc2)NC(=O)CSC[C@@H](C(=O)NCC(N)=O)NC(=O)[C@H](Cc2ccc(O)cc2)NC(=O)[C@H](C)NC1=O` [Bpa-P1] ({CH2CO}-[dY]LNSVNDD[Bpa]YLAYCG-NH2; thioether N-14), for which the “protein modification (cross-linked BRD3-BD2)” value at BRD3-BD2 [2] came to 96%.
For the molecule `CC[C@H](C)[C@@H]1NC(=O)[C@H](Cc2ccccc2)NC(=O)[C@H](Cc2ccc(C(=O)c3ccccc3)cc2)NC(=O)[C@H]([C@@H](C)O)NC(=O)[C@H](CC(=O)O)NC(=O)CNC(=O)[C@H](CCCCN)NC(=O)[C@H](C)NC(=O)[C@H](CC(N)=O)NC(=O)[C@H](CC(C)C)NC(=O)[C@@H](Cc2ccc(O)cc2)NC(=O)CSC[C@@H](C(=O)NCC(=O)N[C@@H](CCCCNC(=O)c2ccc3c(c2)C(=O)OC32c3ccc(O)cc3Oc3cc(O)ccc32)C(N)=O)NC(=O)[C@H](Cc2ccc(O)cc2)NC(=O)[C@H]([C@@H](C)CC)NC1=O` [Bpa-P2-FAM] ({CH2CO}-[dY]LNAKGDT[Bpa]FIIYCGK(5FAM)-NH2; thioether N-14), on BRD3-BD2 [1], the Kd was 14 ± 1 µM.
As for `CC[C@H](C)[C@@H]1NC(=O)[C@H](Cc2ccccc2)NC(=O)[C@H](Cc2ccc(C(=O)c3ccccc3)cc2)NC(=O)[C@H]([C@@H](C)O)NC(=O)[C@H](CC(=O)O)NC(=O)CNC(=O)[C@H](CCCCN)NC(=O)[C@H](C)NC(=O)[C@H](CC(N)=O)NC(=O)[C@H](CC(C)C)NC(=O)[C@@H](Cc2ccc(O)cc2)NC(=O)CSC[C@@H](C(=O)NCC(N)=O)NC(=O)[C@H](Cc2ccc(O)cc2)NC(=O)[C@H]([C@@H](C)CC)NC1=O` [Bpa-P2] ({CH2CO}-[dY]LNAKGDT[Bpa]FIIYCG-NH2; thioether N-14), the “protein modification (cross-linked BRD3-BD2)” value on BRD3-BD2 [2] amounted to 78%.
Take “cyclic-WKTIKGKTWRTKQC(S-) (sidechain bridge or staple) [3.1B, previously identified non-covalent cyclic peptide ligand of the first bromodomain of BRD3, BRD3-BD1]”: at BRD3-BD1, the Kd was 0.00049 µM.

B1: peptide 3.2B (peptide)
peptide: WSWLCKK(Ac)YNLIH
modifications: thioether (positions not given here); not fully specified (bridges); also: cyclic through C5 sulfur, other ring end not given here, bridge at 5, other end not in the chain
notes: Printed as cyclic-WSWLC(S-)KKYNLIH with the second K underlined (acetylated)
Consider B1, for which the binding result in experiment [3] is listed as “binds”.
